The source of these data is patent publication US20220033396A1, “FURTHER HETEROAROMATIC COMPOUNDS HAVING ACTIVITY AGAINST RSV” (priority 2018, published 2022).

Series [1] relates to rgRSV224 virus. In words: microbe, parasite or virus in culture. It is filed as cell-based. The note with it: human respiratory syncytial virus, 72 h; rgRSV224 virus (MOI=1), HeLa cells, GFP expression three days post-virus exposure; averaged data of several repeat experiments; read-out: RSV HELA EC50.
Series [2] can be described thus: in vitro. The note with it: human.

For the compound `C[C@@H]1c2ccccc2CCN1C(=O)c1cc(C2CC2)c2nc(-c3ccc(C(=O)O)cc3F)cn2c1` [Compound 1, 4-{8-Cyclopropyl-6-[(1R)-1-methyl-1,2,3,4-tetrahydroisoquinoline-2-carbonyl]imidazo[1,2-a]pyridin-2-yl}-3-fluorobenzoic Acid], the EC50 in series [1] was found to be 0.51 µM. The CC50 at 3 days in series [2] is 60.4 µM.

`C[C@@H]1c2ccccc2CCN1C(=O)c1cc(-c2ccccc2)c2nc(-c3ccc(N4CC[C@H](C(N)=O)C4)cc3F)cn2c1` [Compound 16, (3S)-1-(3-Fluoro-4-{6-[(1R)-1-methyl-1,2,3,4-tetrahydroisoquinoline-2-carbonyl]-8-phenylimidazo[1,2-a]pyridin-2-yl}phenyl)pyrrolidine-3-carboxamide]: in series [1], the EC50 was 0.186 µM. This compound registered a CC50 at 3 days in series [2] of 93.6 µM.

Take `C[C@@H]1c2ccccc2CCN1C(=O)c1cc(C2CC2)c2nc(-c3ccc(C4C[C@@H]4C(=O)O)cc3F)cn2c1` (relative stereo) [Compound 6, Trans 2-(4-{8-Cyclopropyl-6-[(1R)-1-methyl-1,2,3,4-tetrahydroisoquinoline-2-carbonyl]imidazo[1,2-a]pyridin-2-yl}-3-fluorophenyl)cyclopropane-1-carboxylic acid]: in series [1], the EC50 is 0.103 µM. The CC50 at 3 days in series [2] came out at 56.2 µM.

For the compound `C[C@@H]1c2ccccc2CCN1C(=O)c1cc(C2CC2)c2nc(-c3ccc(NC(=O)N4CC[C@@H](O)C4)cc3F)cn2c1` [Compound 5, (3R)-N-(4-{8-Cyclopropyl-6-[(1R)-1-methyl-1,2,3,4-tetrahydroisoquinoline-2-carbonyl]imidazo[1,2-a]pyridin-2-yl}-3-fluorophenyl)-3-hydroxypyrrolidine-1-carboxamide], the EC50 in series [1] worked out at 0.048 µM. In series [2], this compound showed a CC50 at 3 days of 40.1 µM.

As to `C[C@@H]1c2ccccc2CCN1C(=O)c1cn2cc(-c3ccc(NC(=O)N4CC[C@@H](O)C4)cc3F)nc2c(C2CC2)n1` [Compound 47, (R)-N-(4-(8-cyclopropyl-6-((R)-1-methyl-1,2,3,4-tetrahydroisoquinoline-2-carbonyl)imidazo[1,2-a]pyrazin-2-yl)-3-fluorophenyl)-3-hydroxypyrrolidine-1-carboxamide], the EC50 in series [1] came out at 2.77 µM. In series [2], this compound returned a CC50 at 3 days of over 100 µM.

Consider `C[C@@H]1c2ccccc2CCN1C(=O)c1cc(C2CC2)c2nc(-c3ccc(NC(=O)N4CC[C@H](O)C4)cc3F)cn2c1` [Compound 4, (3S)-N-(4-{8-Cyclopropyl-6-[(1R)-1-methyl-1,2,3,4-tetrahydroisoquinoline-2-carbonyl]imidazo[1,2-a]pyridin-2-yl}-3-fluorophenyl)-3-hydroxypyrrolidine-1-carboxamide], for which, in series [1], the EC50 worked out at 0.035 µM. In addition, the CC50 at 3 days in series [2] is 51.4 µM.

Turning to `C[C@@H]1c2ccccc2CCN1C(=O)c1cc(C2CC2)c2nc(-c3ccc4c(c3F)C=C(C(=O)O)CO4)cn2c1` [Compound 29, (R)-6-(8-cyclopropyl-6-(1-methyl-1,2,3,4-tetrahydroisoquinoline-2-carbonyl)imidazo[1,2-a]pyridin-2-yl)-5-fluoro-2H-chromene-3-carboxylic Acid], the EC50 in series [1] is 0.146 µM. This compound also came in with a CC50 at 3 days in series [2] of 49.5 µM.

Regarding `C[C@@H]1c2ccccc2CCN1C(=O)c1cc(C2CC2)c2nc(-c3ccc(-n4cc(C(=O)O)cn4)cc3F)cn2c1` [Compound 25, 1-(4-{8-Cyclopropyl-6-[(1R)-1-methyl-1,2,3,4-tetrahydroisoquinoline-2-carbonyl]imidazo[1,2-a]pyridin-2-yl}-3-fluorophenyl)-1H-pyrazole-4-carboxylic Acid], the EC50 in series [1] amounted to 0.369 µM. This compound also showed a CC50 at 3 days in series [2] of 51.3 µM.

As for `C[C@@H]1c2ccccc2CCN1C(=O)c1cc(C2CC2)c2cc(-c3ccc(NC(=O)N4CC[C@@H](O)C4)cc3F)cn2n1` [Compound 49, (R)-N-(4-(4-cyclopropyl-2-((R)-1-methyl-1,2,3,4-tetrahydroisoquinoline-2-carbonyl)pyrrolo[1,2-b]pyridazin-6-yl)-3-fluorophenyl)-3-hydroxypyrrolidine-1-carboxamide], the EC50 in series [1] came out at 0.048 µM. Further, the CC50 at 3 days in series [2] amounted to 45.5 µM.

Take `CNC(=O)[C@H]1CCN(c2ccc(-c3cn4cc(C(=O)N5CCc6sccc6[C@H]5C)cc(C5CC5)c4n3)c(F)c2)C1` (single isomer, unassigned) [Compound 14, (3S)-1-(4-{8-Cyclopropyl-6-[(4*R)-4-methyl-4,5,6,7-tetrahydro-thieno[3,2-c]pyridine-5-carbonyl]imidazo[1,2-a]pyridin-2-yl}-3-fluorophenyl)-N-methylpyrrolidine-3-carboxamide]: the EC50 in series [1] came out at 0.084 µM. This compound also returned a CC50 at 3 days in series [2] of over 100 µM.

For the compound `CNC(=O)[C@H]1CCN(c2ccc(-c3cn4cc(C(=O)N5CCc6ccccc6[C@H]5C)cc(C5CC5)c4n3)c(F)c2)C1` [Compound 11, (3S)-1-(4-{8-Cyclopropyl-6-[(1R)-1-methyl-1,2,3,4-tetrahydroisoquinoline-2-carbonyl]imidazo[1,2-a]pyridin-2-yl}-3-fluorophenyl)-N-methylpyrrolidine-3-carboxamide], the EC50 in series [1] came out at 0.062 µM. The CC50 at 3 days in series [2] was over 100 µM.

On to `CCc1cc(C(=O)N2CCc3sc(F)cc3C2C)nn2cc(-c3ccc(NC(=O)N4CC[C@@H](O)C4)cc3F)nc12` (single isomer, unassigned) [Compound 40, (R)-N-(4-(8-ethyl-6-((R*)-2-fluoro-4-methyl-4,5,6,7-tetrahydrothieno[3,2-c]pyridine-5-carbonyl)imidazo[1,2-b]pyridazin-2-yl)-3-fluorophenyl)-3-hydroxypyrrolidine-1-carboxamide], for which the EC50 in series [1] was 0.017 µM. Moreover, the CC50 at 3 days in series [2] turned out to be 29.9 µM.

Regarding `CCc1cc(C(=O)N(CC)C(C)C(C)C)nn2cc(-c3ccc(NC(=O)N4CC[C@@H](O)C4)cc3F)nc12` (stereo partly drawn) [Compound 42, N,8-diethyl-2-(2-fluoro-4-((R)-3-hydroxypyrrolidine-1-carboxamido)phenyl)-N-(3-methylbutan-2-yl)imidazo[1,2-b]pyridazine-6-carboxamide], the EC50 in series [1] turned out to be 5.55 µM. Moreover, the CC50 at 3 days in series [2] turned out to be 46.8 µM.

Turning to `C[C@@H]1c2ccccc2CCN1C(=O)c1cc(C2CC2)c2nc(-c3ccc(N4CC(C(=O)NS(C)(=O)=O)C4)cc3F)cn2c1` [Compound 28, 1-(4-{8-Cyclopropyl-6-[(1R)-1-methyl-1,2,3,4-tetrahydroisoquinoline-2-carbonyl]imidazo[1,2-a]pyridin-2-yl}-3-fluorophenyl)-N-methanesulfonylazetidine-3-carboxamide], in series [1], the EC50 came out at 3.11 µM. This compound also yielded a CC50 at 3 days in series [2] of over 100 µM.

As for `C[C@@H]1c2ccccc2CCN1C(=O)c1cc(C2CC2)c2nc(-c3ccc(C(N)=O)cc3F)cn2c1` [Compound 2, 4-{8-Cyclopropyl-6-[(1R)-1-methyl-1,2,3,4-tetrahydroisoquinoline-2-carbonyl]imidazo[1,2-a]pyridin-2-yl}-3-fluorobenzamide], the concentration for a half-maximal effect (EC50) in series [1] amounted to 0.072 µM. This compound also came in with a CC50 at 3 days in series [2] of 54 µM.

In the case of `C[C@@H]1c2ccccc2CCN1C(=O)c1cc(C2CC2)c2nc(-c3ccc([C@H]4C[C@@H]4C(=O)O)cc3F)cn2n1` [Compound 32, (1S,2 S)-2-(4-{8-Cyclopropyl-6-[(1R)-1-methyl-1,2,3,4-tetrahydroisoquinoline-2-carbonyl]imidazo[1,2-b]pyridazin-2-yl}-3-fluorophenyl)cyclopropane-1-carboxylic Acid], the EC50 in series [1] turned out to be 0.01 µM. Besides, the CC50 at 3 days in series [2] is 51.5 µM.

`C[C@@H]1c2ccccc2CCN1C(=O)c1cc(C2CC2)c2nc(-c3ccc(N4CC[C@H](C(N)=O)C4)cc3F)cn2c1` [Compound 10, (3S)-1-(4-{8-Cyclopropyl-6-[(1R)-1-methyl-1,2,3,4-tetrahydroisoquinoline-2-carbonyl]imidazo[1,2-a]pyridin-2-yl}-3-fluorophenyl)pyrrolidine-3-carboxamide]: the EC50 in series [1] came out at 0.049 µM. The compound also had a CC50 at 3 days in series [2] of 70.4 µM.

As to `CCc1cc(C(=O)N2CCc3ccccc3[C@H]2C)nn2cc(-c3ccc(NC(=O)N4CC[C@@H](O)C4)cc3F)nc12` [Compound 39, (R)-N-(4-(8-ethyl-6-((R)-1-methyl-1,2,3,4-tetrahydroisoquinoline-2-carbonyl)imidazo[1,2-b]pyridazin-2-yl)-3-fluorophenyl)-3-hydroxypyrrolidine-1-carboxamide], in series [2], the CC50 at 3 days came to 29.3 µM.

Take `CCc1cc(C(=O)N2CCc3ccccc3[C@H]2C)nn2cc(-c3ccc(N4CC(O)C4)cc3F)nc12` [Compound 35, (R)-(8-ethyl-2-(2-fluoro-4-(3-hydroxyazetidin-1-yl)phenyl)imidazo[1,2-b]pyridazin-6-yl)(1-methyl-3,4-dihydroisoquinolin-2(1H)-yl)methanone]: in series [1], the EC50 came out at 0.021 µM. Besides, in series [2], the CC50 at 3 days amounted to 16.3 µM.

Consider `C[C@@H]1c2ccccc2CCN1C(=O)c1cc(C2CC2)c2nc(-c3ccc(N4CC[C@H](C(N)=O)C4)nc3F)cn2c1` [Compound 22, (3S)-1-(5-{8-Cyclopropyl-6-[(1R)-1-methyl-1,2,3,4-tetrahydroisoquinoline-2-carbonyl]imidazo[1,2-a]pyridin-2-yl}-6-fluoropyridin-2-yl)pyrrolidine-3-carboxamide], for which, in series [1], the EC50 turned out to be 0.171 µM. For the same compound, the CC50 at 3 days in series [2] is 37.4 µM.

For the compound `C[C@@H]1c2ccccc2CCN1C(=O)c1cc(C2CC2)c2nc(-c3ccc(N)cc3F)cn2c1` [Compound 3, 4-{8-Cyclopropyl-6-[(1R)-1-methyl-1,2,3,4-tetrahydroisoquinoline-2-carbonyl]imidazo[1,2-a]pyridin-2-yl}-3-fluoroaniline], the EC50 in series [1] was determined as 0.054 µM. The compound further showed a CC50 at 3 days in series [2] of 68 µM.

Consider `C[C@@H]1c2ccccc2CCN1C(=O)c1cc(C2CC2)c2nc(-c3ccc(NC(=O)N4CC[C@@H](O)C4)cc3F)cn2n1` [Compound 37, (R)-N-(4-(8-cyclopropyl-6-((R)-1-methyl-1,2,3,4-tetrahydroisoquinoline-2-carbonyl)imidazo[1,2-b]pyridazin-2-yl)-3-fluorophenyl)-3-hydroxypyrrolidine-1-carboxamide], for which the CC50 at 3 days in series [2] is 32.2 µM.

Usually EC50 stands for the midpoint of the concentration-response curve.
